Data reported in ChEMBL document CHEMBL1201862, “PubChem BioAssay data set” (2004).
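Assay format: 96-well plates, 48-hour exposure. At the GI50, growth is halved.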 The source made the active and inactive calls. Cut-off read from the data, not from the text of the source: active = GI50 up to about 1.1 µM and inactive = higher.

Legend:
Test in all cases: NCI anticancer screen, dose series, 48 h
CAKI-1 = system: CAKI-1
CCRF-CEM = system: CCRF-CEM
DU-145 = system: DU-145
HCT-15 = system: HCT-15
HOP-92 = system: HOP-92
HT-29 = system: HT-29
IGROV-1 = system: IGROV-1
KM12 = system: KM12
MDA-MB-231 = system: MDA-MB-231
Malme-3M = system: Malme-3M
NCI-H460 = system: NCI-H460
OVCAR-3 = system: OVCAR-3
OVCAR-5 = system: OVCAR-5
SF-539 = system: SF-539
SK-MEL-5 = system: SK-MEL-5
SK-OV-3 = system: SK-OV-3
SN12C = system: SN12C
SW-620 = system: SW-620
TK-10 = system: TK-10
UACC-62 = system: UACC-62

SMILES | GI50 (CAKI-1) | GI50 (CCRF-CEM) | GI50 (DU-145) | GI50 (HCT-15) [µM] | GI50 (HOP-92) | GI50 (HT-29) | GI50 (IGROV-1) | GI50 (KM12) | GI50 (MDA-MB-231) | GI50 (Malme-3M) | GI50 (NCI-H460) | GI50 (OVCAR-3) | GI50 (OVCAR-5) | GI50 (SF-539) | GI50 (SK-MEL-5) | GI50 (SK-OV-3) | GI50 (SN12C) | GI50 (SW-620) | GI50 (TK-10) | GI50 (UACC-62)
COc1cc(C2C3=C(COC3=O)Oc3cc4c(cc32)OCO4)ccc1O (stereo not given) | 0.0445 µM (active) | 0.352 µM (active) | 0.514 µM (active) | 0.476 | 3.59 µM (inactive) | 0.359 µM (active) | 0.509 µM (active) | 0.262 µM (active) | 0.818 µM (active) | 0.174 µM (active) | 0.308 µM (active) | 0.189 µM (active) | 3.78 µM (inactive) | 0.281 µM (active) | 0.0728 µM (active) | 0.302 µM (active) | 2.69 µM (inactive) | 0.329 µM (active) | > 100 µM (inactive) | 0.356 µM (active)
C=C1CC2(C[C@@H](c3ccccc3)O[C@@H](c3ccccc3)C2)OC1=O (stereo not given in full) | 1.97 µM (inactive) | 1.71 µM (inactive) | 9.12 µM (inactive) | 2.54 | 5.22 µM (inactive) | 2.92 µM (inactive) | 2.71 µM (inactive) | 4.39 µM (inactive) | 2.15 µM (inactive) | 1.89 µM (inactive) | 10.2 µM (inactive) | 2.36 µM (inactive) | 13.3 µM (inactive) | 1.92 µM (inactive) | 3.01 µM (inactive) | 14.5 µM (inactive) | 3.01 µM (inactive) | 1.67 µM (inactive) | 1.8 µM (inactive) | 2.51 µM (inactive)
CCCCCCCCCCCCOCCCCCCCCC/C=C/c1ccc2c(c1)OCCOCCOCCOCCO2 | 17.3 µM (inactive) | 39.5 µM (inactive) | 33 µM (inactive) | 45.9 | 12.2 µM (inactive) | 20.7 µM (inactive) | 21.3 µM (inactive) | 16.8 µM (inactive) | 17.1 µM (inactive) | 24.6 µM (inactive) | 18.4 µM (inactive) | 21.1 µM (inactive) | 31 µM (inactive) | 17.4 µM (inactive) | 15.5 µM (inactive) | 17.5 µM (inactive) | 23.6 µM (inactive) | 30.3 µM (inactive) | 19.6 µM (inactive) | 15.1 µM (inactive)
CCCCCCCC(=O)OC[n+]1cccc(-c2c(COC(=O)NC(C)C)c(COC(=O)NC(C)C)c3n2CCC3)c1 | 18.9 µM (inactive) | 21.2 µM (inactive) | > 83.9 µM (inactive) | > 100 | 44.8 µM (inactive) | > 100 µM (inactive) | > 51.2 µM (inactive) | > 100 µM (inactive) | > 100 µM (inactive) | > 100 µM (inactive) | 46.1 µM (inactive) | > 100 µM (inactive) | > 100 µM (inactive) | 33.7 µM (inactive) | > 100 µM (inactive) | > 100 µM (inactive) | 48 µM (inactive) | > 50.5 µM (inactive) | > 100 µM (inactive) | 38.1 µM (inactive)
COc1ccc(Cc2nc3cc(Cl)ccc3o2)cc1 | 31 µM (inactive) | 12.2 µM (inactive) | 38.8 µM (inactive) | 26.9 | 41.2 µM (inactive) | 30.1 µM (inactive) | 63 µM (inactive) | 27.7 µM (inactive) | 30.8 µM (inactive) | 26.7 µM (inactive) | 31.2 µM (inactive) | 27 µM (inactive) | 50.6 µM (inactive) | 45.1 µM (inactive) | 14.5 µM (inactive) | 47.3 µM (inactive) | 54.5 µM (inactive) | 35.5 µM (inactive) | 35.7 µM (inactive) | 60 µM (inactive)
CCCC(=O)N1CCN(c2ccc3c(c2)OC(C)O3)CC1 (stereo not given) | > 100 µM (inactive) | > 100 µM (inactive) | > 100 µM (inactive) | > 100 | > 100 µM (inactive) | > 100 µM (inactive) | > 100 µM (inactive) | > 100 µM (inactive) | > 100 µM (inactive) | > 100 µM (inactive) | > 100 µM (inactive) | > 100 µM (inactive) | > 100 µM (inactive) | > 100 µM (inactive) | > 100 µM (inactive) | > 100 µM (inactive) | > 100 µM (inactive) | > 100 µM (inactive) | > 100 µM (inactive) | > 100 µM (inactive)
Oc1c(CN2CCOCC2)ccc(CN2CCOCC2)c1O | 52 µM (inactive) | 3.62 µM (inactive) | 26.6 µM (inactive) | 34 | > 100 µM (inactive) | 52.1 µM (inactive) | 70.5 µM (inactive) | 75.7 µM (inactive) | > 100 µM (inactive) | 31 µM (inactive) | 25.7 µM (inactive) | 21.2 µM (inactive) | 57 µM (inactive) | 25.7 µM (inactive) | 25.5 µM (inactive) | 54 µM (inactive) | 25.6 µM (inactive) | 83.6 µM (inactive) | 47.2 µM (inactive) | 25.2 µM (inactive)
CC1CN=C(Nc2ccccc2)S1 (stereo not given) | > 100 µM (inactive) | > 100 µM (inactive) | > 100 µM (inactive) | > 100 | > 100 µM (inactive) | > 100 µM (inactive) | > 100 µM (inactive) | > 100 µM (inactive) | > 100 µM (inactive) | > 100 µM (inactive) | > 100 µM (inactive) | > 100 µM (inactive) | > 100 µM (inactive) | > 100 µM (inactive) | > 100 µM (inactive) | > 100 µM (inactive) | > 100 µM (inactive) | > 100 µM (inactive) | > 100 µM (inactive) | > 100 µM (inactive)
Cc1c(C)c2c(c(N)c1C#N)C(=O)N(NC(=S)Nc1ccccc1)C2=O | 18.2 µM (inactive) | 62.5 µM (inactive) | > 100 µM (inactive) | 67.8 | > 100 µM (inactive) | 60.1 µM (inactive) | 56.5 µM (inactive) | 91.4 µM (inactive) | > 100 µM (inactive) | 72.9 µM (inactive) | 61.2 µM (inactive) | > 100 µM (inactive) | > 100 µM (inactive) | 49.8 µM (inactive) | 90.4 µM (inactive) | > 100 µM (inactive) | 69.7 µM (inactive) | 57.5 µM (inactive) | > 100 µM (inactive) | > 100 µM (inactive)
O=C(O)c1cscc1Cc1cccs1 | > 100 µM (inactive) | > 100 µM (inactive) | > 100 µM (inactive) | > 100 | > 100 µM (inactive) | > 100 µM (inactive) | > 100 µM (inactive) | > 100 µM (inactive) | > 100 µM (inactive) | > 100 µM (inactive) | > 100 µM (inactive) | > 100 µM (inactive) | > 100 µM (inactive) | > 100 µM (inactive) | > 100 µM (inactive) | > 100 µM (inactive) | > 100 µM (inactive) | > 100 µM (inactive) | > 100 µM (inactive) | > 100 µM (inactive)
Clc1ccc(C(c2ccc(Cl)cc2)N2CCNCC2)cc1 | 4.39 µM (inactive) | 2.34 µM (inactive) | 2.47 µM (inactive) | 2.58 | 3.01 µM (inactive) | 2.03 µM (inactive) | 1.77 µM (inactive) | 1.77 µM (inactive) | 2.09 µM (inactive) | 1.58 µM (inactive) | 2.05 µM (inactive) | 1.9 µM (inactive) | 6.78 µM (inactive) | 1.87 µM (inactive) | 2.02 µM (inactive) | 5.43 µM (inactive) | 2.89 µM (inactive) | 2.22 µM (inactive) | 1.64 µM (inactive) | 1.77 µM (inactive)
O=C1CC2OCC=C3CN4CCC5(C(=O)O)C(N1)C2C3CC45 (stereo not given) | > 100 µM (inactive) | > 100 µM (inactive) | > 100 µM (inactive) | > 100 | > 100 µM (inactive) | > 100 µM (inactive) | > 100 µM (inactive) | > 100 µM (inactive) | > 100 µM (inactive) | > 100 µM (inactive) | > 100 µM (inactive) | > 100 µM (inactive) | > 100 µM (inactive) | > 100 µM (inactive) | > 100 µM (inactive) | > 100 µM (inactive) | > 100 µM (inactive) | > 100 µM (inactive) | > 100 µM (inactive) | > 100 µM (inactive)
O[C@]12C=C(c3nccc4c3[nH]c3ccccc34)[C@@H]3CCN(CCCC/C=C\CC1)C[C@@]31CC3/C=C\CCCCN3[C@H]12 (stereo not given in full) | 0.541 µM (active) | 0.74 µM (active) | 0.344 µM (active) | 0.288 | 0.252 µM (active) | 0.119 µM (active) | 0.112 µM (active) | 0.387 µM (active) | 0.484 µM (active) | 0.509 µM (active) | 0.191 µM (active) | 0.302 µM (active) | 0.405 µM (active) | 0.53 µM (active) | 0.187 µM (active) | 0.0869 µM (active) | 0.44 µM (active) | 0.306 µM (active) | 0.378 µM (active) | 0.0733 µM (active)
O=S(=O)(NC1OCCCC1I)c1ccccc1 (stereo not given) | > 100 µM (inactive) | 68.4 µM (inactive) | > 100 µM (inactive) | > 100 | > 100 µM (inactive) | > 100 µM (inactive) | 44.5 µM (inactive) | > 100 µM (inactive) | > 100 µM (inactive) | > 100 µM (inactive) | > 100 µM (inactive) | > 100 µM (inactive) | > 100 µM (inactive) | > 100 µM (inactive) | > 100 µM (inactive) | > 100 µM (inactive) | > 100 µM (inactive) | > 100 µM (inactive) | > 100 µM (inactive) | > 100 µM (inactive)
